Patent US20240300980A1, “HETEROCYCLIC COMPOUNDS AS KRAS INHIBITOR, AND PREPARATION THEREFOR AND USE THEREOF IN TREATMENT” (SHANGHAI KECHOW PHARMA, INC., priority 2021, published 2024)
Read-outs that look alike come from different tables or passages of the source.

Test system: AGS cells (KRAS^G12D)
Assay: Detection of cell proliferation in vitro by MTT/MTS method (cell activity experiment)
Assay type: cell-based
Conditions: AGS cells, MTT/MTS, 3 days of drug treatment, read-out: AGS IC50
How it was run: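 After 3-day compound exposure (final DMSO 0.5%), viability of AGS (KRAS G12D) cells, plated 1000/well one day before dosing, was measured at 490 nm following 4 h MTT or MTS incubation. IC50 was fitted from dose–effect curves relative to DMSO-treated wells.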

IC50 | Compound | IC50 (Homo sapiens, AGS, 72 h)
 | Oc1cc2c(c(-c3ncc4c(N5C[C@H]6CC[C@@H](C5)N6)nc(OC[C@@]56CCCN5C[C@H](F)C6)nc4c3F)c1)C(F)CCC2 (stereo partly drawn) [Example 272, 4-(4-((1R,5S)-3,8-diazabicyclo[3.2.1]octan-3-yl)-8-fluoro-2-(((2R,7aS)-2-fluorotetrahydro-1H-pyrrolizin-7a(5H)-yl)methoxy)pyrido[4,3-d]pyrimidin-7-yl)-5-fluoro-5,6,7,8-tetrahydronaphthalen-2-ol] | 70 nM
 | CC12CC1CCc1cc(O)cc(-c3ccc4c(N5C[C@H]6CC[C@@H](C5)N6)nc(OC[C@@]56CCCN5C[C@H](F)C6)nc4c3F)c12 (stereo partly drawn) [Example 281, 7-(4-((1R,5S)-3,8-diazabicyclo[3.2.1]octan-3-yl)-8-fluoro-2-(((2R,7aS)-2-fluorotetrahydro-1H-pyrrolizin-7a(5H)-yl)methoxy)quinazolin-7-yl)-7b-methyl-1a, 2,3,7b-tetrahydro-1H-cyclopropa[a]naphthalen-5-ol] | 537 nM
 | C#Cc1c(F)ccc2cc(O)cc(-c3ncc4c(C5C[C@H]6CC[C@@H](C5)N6)nc(OC[C@@]56CCCN5C[C@H](F)C6)nc4c3F)c12 (stereo partly drawn) [Example 79, 4-(4-((1R,5S)-8-azabicyclo[3.2.1]octan-3-yl)-8-fluoro-2-(((2R,7aS)-2-fluorotetrahydro-1H-pyrrolizin-7a(5H)-yl)methoxy)pyrido[4,3-d]pyrimidin-7-yl)-5-ethynyl-6-fluoronaphthalen-2-ol] | > 2500 nM
 | Oc1ccc2c(C#Cc3ccc4c(N5C[C@H]6CC[C@@H](C5)N6)nc(OC[C@@]56CCCN5C[C@H](F)C6)nc4c3F)c(F)ccc2c1 [Example 367, 5-((4-((1R,5S)-3,8-diazabicyclo[3.2.1]octan-3-yl)-8-fluoro-2-(((2R,7aS)-2-fluorotetrahydro-1H-pyrrolizin-7a(5H)-yl)methoxy)quinazolin-7-yl)ethynyl)-6-fluoronaphthalen-2-ol] | 194 nM
 | CCC1COc2cc(O)cc(-c3ncc4c(N5C[C@H]6CC[C@@H](C5)N6)nc(OC[C@@]56CCCN5C[C@H](F)C6)nc4c3F)c21 (stereo partly drawn) [Example 243, 4-(4-((1R,5S)-3,8-diazabicyclo[3.2.1]octan-3-yl)-8-fluoro-2-(((2R,7aS)-2-fluorotetrahydro-1H-pyrrolizin-7a(5H)-yl)methoxy)pyrido[4,3-d]pyrimidin-7-yl)-3-ethyl-2,3-dihydrobenzofuran-6-ol] | 18 nM
 | Oc1cc(-c2ncc3c(N4C[C@H]5CC[C@@H](C4)N5)c(C(F)(F)F)c(OC[C@@]45CCCN4C[C@H](F)C5)nc3c2F)c2c(F)c(F)ccc2c1 [Example 198, 4-(4-((1R,5S)-3,8-diazabicyclo[3.2.1]octan-3-yl)-8-fluoro-2-(((2R,7aS)-2-fluorotetrahydro-1H-pyrrolizin-7a(5H)-yl)methoxy)-3-(trifluoromethyl)-1,6-naphthyridin-7-yl)-5,6-difluoronaphthalen-2-ol] | > 2500 nM
212 nM | C#Cc1c(F)ccc2cc(O)cc(-c3cc4nc(OC[C@@]56CCCN5C[C@H](F)C6)nc(N5C[C@H]6CC[C@@H](C5)N6)c4c4occc34)c12 [Example 384, 4-(9-((2R,5S)-3,8-diazabicyclo[3.2.1]octan-3-yl)-7-(((2R,7aS)-2-fluorotetrahydro-1H-pyrrolizin-7a(5H)-yl)methoxy)furo[2,3-f]quinazolin-4-yl)-5-ethynyl-6-fluoronaphthalen-2-ol] | 
> 2500 nM | C#Cc1c(F)ccc2cc(O)cc(-c3ccc4c(N5C[C@H]6CC[C@@H](C5)[C@@H]6O)nc(OC[C@@]56CCCN5C[C@H](F)C6)nc4c3F)c12 [Example 118, (1R,5S,8R)-3-(7-(8-ethynyl-7-fluoro-3-hydroxynaphthalen-1-yl)-8-fluoro-2-(((2R,7aS)-2-fluorotetrahydro-1H-pyrrolizin-7a(5H)-yl)methoxy)quinazolin-4-yl)-3-azabicyclo [3.2.1]octan-8-ol] | 
 | Oc1cc(-c2ccc3c(N4C[C@H]5CC[C@@H](C4)N5)nc(OCC4(CN5CCCC5)CC4)nc3c2F)c2c(F)cccc2c1 [Example 102, 4-(4-((1R,5S)-3,8-diazabicyclo[3.2.1]octan-3-yl)-8-fluoro-2-((1-(pyrrolidin-1-ylmethyl)cyclopropyl)methoxy)quinazolin-7-yl)-5-fluoronaphthalen-2-ol] | 33 nM
 | C#Cc1c(F)ccc2cc(O)cc(-c3ccc4c(N5CC6(CCN6)C5)nc(OC[C@@]56CCCN5C[C@H](F)C6)nc4c3F)c12 [Example 216, 5-ethynyl-6-fluoro-4-(8-fluoro-2-(((2R,7aS)-2-fluorotetrahydro-1H-pyrrolizin-7a(5H)-yl)methoxy)-4-(1,6-diazaspiro[3.3]heptan-6-yl)quinazolin-7-yl)naphthalen-2-ol] | 3480 nM
 | CCc1cccc2cc(O)cc(-c3ncc4c(N5C[C@H]6CC[C@@H](C5)S6)nc(OC[C@@]56CCCN5C[C@H](F)C6)nc4c3F)c12 [Example 25, 4-(4-((1R,5S)-8-thia-3-azabicyclo[3.2.1]octan-3-yl)-8-fluoro-2-(((2R, 7aS)-2-fluorotetrahydro-1H-pyrrolizin-7a(5H)-yl)methoxy)pyrido[4,3-d]pyrimidin-7-yl)-5-ethylnaphthalen-2-ol] | 290 nM
 | C#Cc1c(F)ccc2cc(O)cc(-c3ccc4c(N5CC6CCNC6C5)nc(OC[C@@]56CCCN5C[C@H](F)C6)nc4c3F)c12 (stereo partly drawn) [Example 113, 5-ethynyl-6-fluoro-4-(8-fluoro-2-(((2R,7aS)-2-fluorotetrahydro-1H-pyrrolizin-7a(5H)-yl)methoxy)-4-(hexahydropyrrolo[3,4-b]pyrrol-5(1H)-yl)quinazolin-7-yl) naphthalen-2-ol] | > 2500 nM
 | Cc1cc(N)nc(-c2ncc3c(N4C[C@H]5CC[C@@H](C4)N5)nc(OC[C@@]45CCCN4C[C@H](F)C5)nc3c2F)c1C1CC1 [Example 72, 6-(4-((1R,5S)-3,8-diazabicyclo[3.2.1]octan-3-yl)-8-fluoro-2-(((2R,7aS)-2-fluorotetrahydro-1H-pyrrolizin-7a(5H)-yl)methoxy)pyrido[4,3-d]pyrimidin-7-yl)-5-cyclopropyl-4-methylpyridin-2-amine] | > 2500 nM
 | C#Cc1c(F)ccc2cc(O)cc(-c3ncc4c(N5CCC(N)C5)nc(OC[C@@]56CCCN5C[C@H](F)C6)nc4c3F)c12 (stereo partly drawn) [Example 51, 4-(4-(3-aminopyrrolidin-1-yl)-8-fluoro-2-(((2R, 7aS)-2-fluorotetrahydro-1H-pyrrolizin-7a(5H)-yl)methoxy)pyrido[4,3-d]pyrimidin-7-yl)-5-ethynyl-6-fluoronaphthalen-2-ol] | 1660 nM
 | C#Cc1c(F)ccc2cc(O)cc(-c3ncc4c(N5CCC6(CCCN6)CC5)nc(OC[C@@]56CCCN5C[C@H](F)C6)nc4c3F)c12 [Example 47, 5-ethynyl-6-fluoro-4-(8-fluoro-2-(((2R,7aS)-2-fluorotetrahydro-1H-pyrrolizin-7a(5H)-yl)methoxy)-4-(1,8-diazaspiro[4.5]decan-8-yl)pyrido[4,3-d]pyrimidin-7-yl) naphthalen-2-ol] | 4540 nM
 | C#Cc1cccc2cc(O)cc(-c3ncc4c(N5CCC6(CCCN6)CC5)nc(OC[C@@]56CCCN5C[C@H](F)C6)nc4c3F)c12 [Example 48, 5-ethynyl-4-(8-fluoro-2-(((2R,7aS)-2-fluorotetrahydro-1H-pyrrolizin-7a(5H)-yl)methoxy)-4-(1,8-diazaspiro[4.5]decan-8-yl)pyrido[4,3-d]pyrimidin-7-yl) naphthalen-2-ol] | 5160 nM
